{
  "source": "patent US20170072012A1",
  "about": "“USE OF GSMTX4 TO REDUCE ISCHEMIA REPERFUSION INJURY” (priority 2014, published 2017)",
  "key": {"[1]": {"experiment": "Single-dose pharmacokinetic study, plasma and heart concentration by LC/MS/MS", "assay_type": "in vivo, CD-1 mice", "details": "for Tmax: female, CD-1, mouse, plasma and heart", "experimental": "For single-dose pharmacokinetic studies, 7-9 week old female CD-1 mice were obtained from Charles River Laboratories, Inc. by Covance Laboratories Inc., Greenfield, Ind., USA. For subcutaneous injection, GsMTx4-D was dissolved at a concentration of 7.5 mg/ml in phosphate buffered saline pH 7.4 and injected subcutaneously into the back of mice at a net dose of 50 mg/kg. For intravenous (IV) administration into the tail vein, 1.5 mg/ml GsMTx4-D was used to achieve a dose of 5 mg/kg. Animals were sacrificed at 5, 15, 30, 60, 120, 480, 960 and 1920 min after injection, and blood and heart tissue samples were harvested. Animals were checked for death or morbidity during the whole trial. At the conclusion of each trial period, mice were euthanized by CO2 inhalation for 10 min. Blood samples were treated with sodium heparin and centrifuged to obtain plasma. There were cohorts of 3 mice per time point, and tissue samples from the 3 animals were combined from each time point to create average samples. Samples were sent to Custom Biologics, Mississauga, ON, Canada to measure the amount of GsMTx4 by liquid chromatography tandem mass spectrometry (LC/MS/MS) in the tissue samples. A reference standard was included in each sample consisting of a functional mutant of GsMTx4-D (F34A). All procedures in this protocol are in compliance with the U.S. Department of Agriculture's (USDA) Animal Welfare Act (9 CFR Parts 1, 2, and 3); the Guide for the Care and Use of Laboratory Animals: Eighth Edition, (Institute for Laboratory Animal Research, The National Academies Press, Washington, D.C., 2010); and the National Institutes of Health, Office of Laboratory Animal Welfare. Whenever possible, procedures in this study were designed to avoid or minimize discomfort, distress, and pain to animals. For ischemic reperfusion (I/R) testing, we used male C57B1/6J mice (4-6 months of age) obtained from Jackson Laboratories (Bar Harbor, […].). All animal protocols in this study were approved by the Institutional Animal Care and Use Committee of the University at Buffalo-State University of New York.\nTo provide a frame of reference for concentration and timing, we compared IV (fast absorption) to subcutaneous (slow absorption) administration and determined the distribution of the peptide in the heart and plasma over 24 hrs using LC/MS/MS (FIG. 1). Mice were sacrificed at different times after injection and the plasma (FIG. 1A) and heart (FIG. 1B) concentrations sampled. […] The samples from the 3 mouse cohorts at each time point were mixed and averaged. […] IV injection of 5 mg/kg GsMTx4-D produced an early spike in plasma concentration ([…] at 5 min) that decayed within 30 min. […] We used 1-5 μM ([…] is 1 μM) as our target concentration for treatment. IV injection of 5 mg/kg GsMTx4-D produced plasma concentrations within 5 minutes that were substantially above the target concentration while whole heart concentrations were somewhat lower than this range. Other ranges may be used for treatment, such as about 1.5-4.5 μM, about 2-4 μM, about 2.5-3.5 μM, about 1-4 μM, about 1-3 μM and about 1-2 μM. The whole heart concentration was lower than the target range within 5 minutes of IV injection, but the net plasma concentrations were acceptable.\nBased on the slower distribution by subcutaneous administration, we injected 10 times the concentration of GsMTx4-D as that used in IV injection. The concentrations increased more slowly in both plasma and heart, peaking in ˜2 hrs, although we could reliably detect it in both tissues within 5 minutes. […] Without being bound by any theory, we believe that this is likely due to deeper infiltration into the tissue, and possibly higher affinity associations."}, "[2]": {"test_system": "I/R induced arrhythmias in mouse heart", "experiment": "Heart rhythm analysis (ECG) during reperfusion, I/R induced arrhythmia", "assay_type": "in vivo, C57B1/6J mice", "details": "for total incidence of arrhythmias (ventricular and supraventricular premature beats): vehicle 14.9±4.5; for mean heart rate during the 15 min of reperfusion: vehicle 162.9±13.2", "experimental": "During reperfusion we continuously recorded ECGs, from which mean heart rate, PR, QRS, and QT intervals were derived for each animal. We evaluated the incidence of arrhythmias by counting the incidences of arrhythmias including ventricular and supraventricular premature beats by summing the number of episodes based on limb lead recordings for 15 min after reperfusion. Ventricular premature beats are considered more severe. Each group contained 5 to 7 independent experiments (vehicle n=7, verapamil n=6, GsMTx4-D 0.1mg/kg n=5, 1 mg/kg n=6 and 10 mg/kg n=5).\nHeart rate and rhythm were monitored by ECG to confirm the hallmark ischemic ST-segment elevation during coronary occlusion, and the gradually increasing inversion of the T-wave during reperfusion (FIG. 4A). Since generation of arrhythmias is a good indicator of the level of I/R damage, we counted ventricular and supraventricular premature beats occurring within 15 min of reperfusion (FIG. 4B). No ventricular tachycardia was observed during 20 min ischemia and 15 min reperfusion in the mouse heart. […] Considering that ventricular premature beats are indicative of more severe damage, the incidence of this specific arrhythmia was analyzed separately (FIG. 4 D). […] There was no difference in mean heart rate before ischemia (FIG. 4E). […] There was no difference in PR, QRS or QT intervals after treatment in all groups (data not shown)."}, "[3]": {"details": "subcutaneous injection 50 mg/kg"}},
  "note": "Where two headings read alike, the source gives them in different places. Where a SMILES comes first, the peptide text is derived from it. Bridges are numbered along the chain shown (N, C = ends). [ ]: non-standard residue; d: D form.",
  "data": [
    {"compound": "CC(C)C[C@H]1NC(=O)[C@H](NC(=O)CN)CSSC[C@H]2NC(=O)[C@H]3CSSC[C@H](C(=O)N[C@H](CC(N)=O)C(=O)N[C@H](Cc4ccccc4)C(=O)N[C@H](CO)C(=O)N[C@H](Cc4ccccc4)C(N)=O)NC(=O)[C@@H](CC(C)C)NC(=O)[C@@H](CCCCN)NC(=O)[C@@H](Cc4ccccc4)NC(=O)[C@@H](CC(C)C)NC(=O)[C@@H](CCCCN)NC(=O)[C@@H](CO)NC(=O)[C@@H](CSSC[C@@H](NC(=O)[C@@H](CCCCN)NC(=O)[C@@H](Cc4c[nH]c5ccccc45)NC(=O)[C@@H](Cc4c[nH]c5ccccc45)NC(=O)[C@@H](Cc4ccccc4)NC(=O)[C@@H](CCC(=O)O)NC1=O)C(=O)N[C@H](CC(N)=O)C(=O)N1CCC[C@@H]1C(=O)N[C@H](CC(N)=O)C(=O)N[C@H](CC(=O)O)C(=O)N[C@H](CC(=O)O)C(=O)N[C@H](CCCCN)C(=O)N3)NC(=O)[C@@H](CCCCN)NC(=O)[C@@H](CC(C)C)NC(=O)[C@@H](CCCCN)NC(=O)[C@H]1CCCN1C(=O)[C@@H](CCCNC(=N)N)NC2=O", "note": "[GsMTx4-D] (H-G[dC][dL][dE][dF][dW][dW][dK][dC][dN][dP][dN][dD][dD][dK][dC][dC][dR][dP][dK][dL][dK][dC][dS][dK][dL][dF][dK][dL][dC][dN][dF][dS][dF]-NH2; disulfide 2-17, 9-23, 16-30 (inferred); N-terminus and C-terminus assumed)", "values": [
      {"measurement": "death or abnormal behavior during PK study", "setting": "[1]; IV 5 mg/kg or subcutaneous 50 mg/kg", "result": "No mice died during the study, nor did any show abnormal behavior"},
      {"measurement": "time within which plasma concentration spike decayed", "setting": "[1]; IV injection of 5 mg/kg", "result": "≤ 30", "unit": "min"},
      {"measurement": "Tmax", "setting": "[1]; 5 mg/kg, after IV injection, read-out: time of concentration spike in plasma and heart", "result": "< 0.0833", "unit": "h"},
      {"measurement": "Tmax", "setting": "[1]; sc, subcutaneous injection 50 mg/kg, read-out: time of peak concentration in plasma and heart", "result": "~2", "unit": "h"},
      {"measurement": "half-life", "setting": "[1]; mouse, in vivo, D form", "result": "> 24", "unit": "h"},
      {"measurement": "heart concentration twenty four hours after injection", "setting": "[1]; single 50 mg/kg subcutaneous injection, target range 1-5 μM", "result": "near the target range"},
      {"measurement": "plasma concentration by 24 hrs", "setting": "[1]; [3]", "result": "nearly undetectable"},
      {"measurement": "time of peak concentration in plasma and heart", "setting": "[1]; [3]", "result": "~2", "unit": "h"},
      {"measurement": "total incidence of arrhythmias (ventricular and supraventricular premature beats)", "setting": "[2]; 0.1 mg/kg IV 5 min before reperfusion, not significantly different", "result": "10.4±6 incidence/15 min reperfusion"},
      {"measurement": "total incidence of arrhythmias (ventricular and supraventricular premature beats)", "setting": "[2]; 1 mg/kg IV 5 min before reperfusion", "result": "2.3±0.7 incidence/15 min reperfusion"},
      {"measurement": "mean heart rate during the 15 min of reperfusion", "setting": "[2]; 1 mg/kg IV", "result": "255.7±33.4"},
      {"measurement": "ventricular premature beats", "setting": "[2]; 1 mg/kg IV, within 15 min of reperfusion, vehicle 5.7±1.8", "result": "1.3±0.4"},
      {"measurement": "total incidence of arrhythmias (ventricular and supraventricular premature beats)", "setting": "[2]; 10 mg/kg IV 5 min before reperfusion", "result": "2.2±1.0 incidence/15 min reperfusion"},
      {"measurement": "mean heart rate during the 15 min of reperfusion", "setting": "[2]; 10 mg/kg IV", "result": "286.1±25.0"}
    ]}
  ]
}
